Here are results for 15 compounds from patent US11458134B2, “1-[2-(2,4-dimeihylphenylsulfanyl)-phenyl]piperazine as a compound with combined serotonin reuptake, 5-HT3 and 5-HT1A activity for the treatment of cognitive impairment” (H. Lundbeck A/S, priority 2006, dated 2022).

Converted amounts (≈) assume the structure as drawn. Like-named read-outs stand apart in the source and are kept apart here.

One data set deals with acetylcholine. The data set can be described thus: Microdialysis: extracellular acetylcholine in the brain of freely moving rats. It counts as in vivo, Sprague-Dawley rats. Conditions: rat, subcutaneously 2.5-10 mg/kg. On the procedure: The animals were administered 1-[2-(2,4-dimethylphenylsulfanyl)phenyl]-piparazine, HBr salt.
Male Sprague-Dawley rats, initially weighing 275-300 g, were used. The animals were housed under a 12-hr light/dark cycle under controlled conditions for regular in-door temperature (21±2° C.) and humidity (55±5%) with food and tap water available ad libitum.
Rats were anaesthetised with hypnorm/dormicum (2 ml/kg) and intracerebral guide cannulas (CMA/12) were stereotaxically implanted into the brain, aiming at positioning the dialysis probe tip in the ventral hippocampus (co-ordinates: 5.6 mm posterior to bregma, lateral −5.0 mm, 7.0 mm ventral to dura) or in the prefrontal cortex (co-ordinates: 3.2 mm anterior to bregma; lateral, 0.8 mm; 4.0 mm ventral to dura). […] The body temperature of the animals was monitored by rectal probe and maintained at 37° C. […]
The compound dissolved in 10% HPbetaCD and injected subcutaneously (2.5-10 mg/kg). Doses are expressed as mg salt/kg body weight. […]
Concentration of acetylcholine (ACh) in the dialysates was analysed by means of HPLC with electrochemical detection using a mobile phase consisting of 100 mM disodium hydrogenphosphate, 2.0 mM octane sulfonic acid, 0.5 mM tetramethyl-ammonium chloride and 0.005% MB (ESA), pH 8.0. […] The latter was detected electrochemical by using a platinum electrode (Analytical cell: ESA, model 5040). […]

A further data set concerns Sprague-Dawley rats. Briefly: Contextual fear conditioning in rats. Type of data set: in vivo. Conditions: for time spent freezing during the retention test: 24 h after acquisition. The text has this: The compound administered in the present experiment was 1-[2-(2,4-dimethylphenylsulfanyl)phenyl]piperazine HBr salt.
We have studied the effect of the compound on acquisition, consolidation and recall of contextual fear conditioning in rats. In the fear conditioning paradigm animals learn to associate a neutral environment (context, the training chamber, CS) with an aversive experience (an electrical foot-shock, US). During re-exposure to the training chamber, animals express a freezing behaviour, which is taken as a direct measure of the fear-related memory [Pavlov J. Biol. Sci., 15, 177-182, 1980]. […] Neurosci., 106, 274-285, 1992].
Adult male Sprague-Dawley rats (weighing 250-300 g at time of training) from Charles River Laboratories, housed two per cage under a 12 h light/dark cycle, were used. Food and water were available ad libitum. Rats were used 1 week after arrival. The compound was dissolved in 10% HPbetaCD and injected subcutaneously. The drug was administered in a volume of 2.5 ml/kg.
Training and testing were conducted in a soundproof chamber (30×20×40 cm) housed in an isolated room and connected to a ventilation system. Illumination was provided by a white light (60 Watt). The floor of the chamber consisted of a metal grid attached to an electric shock generator. Prior to training and testing, the chamber was cleaned with a 70% ethanol solution. A video camera allowed for behavioral observations and recording of the training session for off-line analysis.
During the acquisition animals were allowed to freely explore the novel environment for a 1 min habituation period, which co-terminated with one inescapable foot-shock (unconditioned stimulus, US) through the electrifiable grid floor. […] Animals remained in the conditioning chamber for another 60 s after the US. Freezing behaviour was scored during the first 58 s (pre-shock acquisition; experimenter blinded to groups) to determine baseline-freezing responses to the context. At the end of the acquisition animals were gently removed and placed into their home cages. After 24 h the same animals were reintroduced into the training context (fear conditioning chamber) and a 2 min retention test was performed. During this period no foot shocks were applied. Freezing behaviour was scored during the whole test period with the experimenter blinded to groups and presented as percent of total test period.

A short description of the next data set: physchem. Conditions: water.
The target of data set [1] is Rat serotonin transporter (Rattus norvegicus, UniProt P31652). The data set can be described thus: Rat serotonin transporter, blockade of 5-HT uptake. Type of data set: biochemical.
Sequence of Rat serotonin transporter (P31652 whole entry): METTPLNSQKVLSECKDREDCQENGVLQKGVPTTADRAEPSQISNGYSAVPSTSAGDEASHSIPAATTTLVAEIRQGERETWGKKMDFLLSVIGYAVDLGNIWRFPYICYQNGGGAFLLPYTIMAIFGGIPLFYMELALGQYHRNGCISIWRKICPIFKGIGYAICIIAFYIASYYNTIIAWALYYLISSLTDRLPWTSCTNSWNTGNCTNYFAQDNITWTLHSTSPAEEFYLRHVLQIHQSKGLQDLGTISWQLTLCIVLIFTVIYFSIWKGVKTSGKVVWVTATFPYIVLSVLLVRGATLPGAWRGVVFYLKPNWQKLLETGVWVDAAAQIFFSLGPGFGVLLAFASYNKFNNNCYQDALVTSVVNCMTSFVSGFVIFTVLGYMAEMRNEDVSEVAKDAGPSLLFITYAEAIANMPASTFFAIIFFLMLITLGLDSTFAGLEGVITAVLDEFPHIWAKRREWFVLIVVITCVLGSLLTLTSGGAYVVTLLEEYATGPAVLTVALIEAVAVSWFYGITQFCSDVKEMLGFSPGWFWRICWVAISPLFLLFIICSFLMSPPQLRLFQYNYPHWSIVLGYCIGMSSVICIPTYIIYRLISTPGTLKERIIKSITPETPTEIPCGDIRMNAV
The target of another data set is T1, Human 5-HT3A receptor (Homo sapiens, UniProt P46098).
T1 sequence (P46098 24-478): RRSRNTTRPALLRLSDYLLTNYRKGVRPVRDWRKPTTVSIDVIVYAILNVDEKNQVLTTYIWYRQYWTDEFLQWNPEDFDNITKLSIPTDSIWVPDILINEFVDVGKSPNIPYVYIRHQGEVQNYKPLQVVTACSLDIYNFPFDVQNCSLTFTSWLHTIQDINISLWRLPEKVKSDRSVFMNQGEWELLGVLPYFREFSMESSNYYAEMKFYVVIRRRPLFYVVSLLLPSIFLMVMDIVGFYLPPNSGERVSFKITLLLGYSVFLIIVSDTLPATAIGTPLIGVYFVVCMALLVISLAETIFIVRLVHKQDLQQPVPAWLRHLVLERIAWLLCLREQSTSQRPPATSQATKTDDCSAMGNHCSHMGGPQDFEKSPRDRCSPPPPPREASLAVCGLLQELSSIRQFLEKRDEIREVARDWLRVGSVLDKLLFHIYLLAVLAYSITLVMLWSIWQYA
Briefly: Human 5-HT3A receptor functional assay (cloned into oocytes). Particulars: at higher concentration, read-out: ED50 (agonistic activity). It counts as cell-based. The text has this:
As shown in example 1, the compounds of the present invention are potent inhibitors of the human serotonin transporter, i.e. they inhibit serotonin reuptake. Moreover, the compounds are potent antagonists at the mouse, rat, guinea pig and canine 5-HT3 receptor. […] Thus, at low concentrations compounds of the present invention display a marked antagonism at the human 5-HT3 receptor as observed on the 5-HT3 receptor from other species.

The nature of data set [2]: Hygroscopicity (water absorption versus relative humidity). It counts as physicochemical.

In the case of `Br.Cc1ccc(Sc2ccccc2N2CCNCC2)c(C)c1` [1-[2-(2,4-dimethylphenylsulfanyl)phenyl]piperazine HBr salt], in the data set with acetylcholine (FIG. 19a), the “extra-cellular levels of ACh in prefrontal cortex” value was “significantly increased”. Moreover, the “extra-cellular levels of ACh in ventral hippocampus” value in the data set on acetylcholine (FIG. 19b) is “significantly increased”. For the same compound, the “time spent freezing during the retention test” value with Sprague-Dawley rats (5 mg/kg s.c. 1 h prior to acquisition) amounted to 39.24±13.76%; in the data set with Sprague-Dawley rats (5 mg/kg s.c. after the acquisition session, p<0.05), 45.58±4.50%; with Sprague-Dawley rats (10 mg/kg s.c. 1 h prior to acquisition, p<0.01), 52.15±5.68%. The “freezing behaviour during the memory test” value with Sprague-Dawley rats (5 mg/kg s.c. 1 h prior to the retention test, p<0.05) was 12.86±3.57%. Moreover, the “contextual memory” value with Sprague-Dawley rats (rats) is “enhances contextual memory”. Moreover, the “baseline freezing behaviour before the foot shock” value with Sprague-Dawley rats (rats, 1, 5 and 10 mg/kg s.c. 1 h prior to acquisition) is “does not affect”.
For the compound `Cc1ccc(Sc2ccccc2N2CCNCC2)c(C)c1.O=C(O)C(O)C(O)C(=O)O` [L-(+)-tartrate, 1-[2-(2,4-Dimethylphenylsulfanyl)-phenyl]piperazine (+)-tartaric acid], the solubility in “physchem” was about 400 µg/mL.
The compound `Br.Cc1ccc(Sc2ccccc2N2CCNCC2)c(C)c1` [beta form of the hydrobromide, 1-[2-(2,4-Dimethylphenylsulfanyl)-phenyl]piperazine hydrobromide] gave a solubility in water in “Solubility in water” (hydrobromide) of 1200 µg/mL.
For the compound `Cc1ccc(Sc2ccccc2N2CCNCC2)c(C)c1` [compound I, 1-[2-(2,4-dimethylphenylsulfanyl)-phenyl]piperazine], in data set [1], 0.0053 µM corresponded to half-maximal inhibition (IC50). Also, the EC50 at Human 5-HT3A receptor came to 2.1 µM.
Turning to `Cc1ccc(Sc2ccccc2N2CCNCC2)c(C)c1` [crystalline base, 1-[2-(2,4-Dimethylphenylsulfanyl)-phenyl]piperazine], in data set [2], the “hygroscopicity” value is reported as “not hygroscopic”. Also, in “Solubility in water”, the solubility in water was found to be 100 µg/mL (≈ 335 µM).
With `Br.CCOC(C)=O.Cc1ccc(Sc2ccccc2N2CCNCC2)c(C)c1` [ethyl acetate solvate, 1-[2-(2,4-Dimethylphenylsulfanyl)-phenyl]piperazine HBr EtOAc solvate], the “hygroscopicity” value in data set [2] is “hygroscopic”.
Compound `Cc1ccc(Sc2ccccc2N2CCNCC2)c(C)c1.O=C(O)/C=C/C(=O)O` [fumarate, 1-[2-(2,4-Dimethyl-phenylsulfanyl)-phenyl]-piperazine fumarate] showed a solubility in the data set “physchem” of 400 µg/mL.
As for `Br.Cc1ccc(Sc2ccccc2N2CCNCC2)c(C)c1` [gamma form of the hydrobromide, 1-[2-(2,4-Dimethylphenylsulfanyl)-phenyl]piperazine hydrobromide], the “water absorbed at 30% RH” value in data set [2] (30% RH at room temperature) is recorded as “about 2%”.
Take `Br.Cc1ccc(Sc2ccccc2N2CCNCC2)c(C)c1` [hemi hydrate of the hydrobromide]: the water content entry in data set [2] (room temperature and 95% RH) was “about 3.7%”.
Take `Cc1ccc(Sc2ccccc2N2CCNCC2)c(C)c1.Cl` [hydrochloride monohydrate, 1-[2-(2,4-Dimethylphenylsulfanyl)-phenyl]piperazine HCl]: the “hygroscopicity” value in data set [2] was “does not absorb further amount of water”. The solubility in the data set “physchem” was about 2000 µg/mL.
For the compound `Cc1ccc(Sc2ccccc2N2CCNCC2)c(C)c1.O=C(O)/C=C\C(=O)O` [maleate, 1-[2-(2,4-Dimethylphenylsulfanyl)-phenyl]piperazine Maleate], in “physchem”, the solubility was about 1000 µg/mL.
In the case of `CS(=O)(=O)O.Cc1ccc(Sc2ccccc2N2CCNCC2)c(C)c1` [mesylate, 1-[2-(2,4-Dimethylphenylsulfanyl)-phenyl]piperazine mesylate], in data set [2], the “hygroscopicity” value was “hygroscopic”. Further, in “physchem”, the solubility was over 45000 µg/mL.
With `Cc1ccc(Sc2ccccc2N2CCNCC2)c(C)c1.O=[N+]([O-])O` [nitrate, 1-[2-(2,4-Dimethylphenylsulfanyl)-phenyl]piperazine nitrate], the solubility in the data set “physchem” is about 800 µg/mL.
The same measure, in the same setting: then `Cc1ccc(Sc2ccccc2N2CCNCC2)c(C)c1.O=P(O)(O)O` [phosphate, 1-[2-(2,4-Dimethylphenylsulfanyl)-phenyl]piperazine phosphate], with about 1000 µg/mL; and `Cc1ccc(Sc2ccccc2N2CCNCC2)c(C)c1.O=S(=O)(O)O` [sulphate, 1-[2-(2,4-Dimethylphenylsulfanyl)-phenyl]piperazine sulphate], with about 100 µg/mL.

Usually solubility stands for the dissolved amount per volume that the medium holds. A lower solubility goes with little dissolved substance. The IC50 is the concentration that inhibits the measured activity by half.
